Data taken from the supplement of paper PMC8882468.
Values joined by “and” are separate entries in the source; they are usually repeats but may differ in a detail not shown here. Equal entries are not always repeated. ± gives the standard deviation of the averaged measurements.

Test system: MDA-MB-231
Experiment: CTG-3D luminescence at 96 h relative to day-0 seeding control (ratio to day 0); higher = more growth / less cytotoxicity; PDxO 3D drug screen (set 2), 96 h, CTG-3D normalised to day-0 seeding control.
Details: 12.5 pM

Q: For `CCOc1ccn(-c2ccc(F)cc2)c(=O)c1C(=O)Nc1ccc(Oc2ccnc(N)c2Cl)c(F)c1` [ASLAN002], which “CTG-3D luminescence at 96 h” value is on record?
A: The value was 5.15 ± 2.7.

Q: For `C[C@@H](Nc1cc(F)cc(F)c1)c1cc(C(=O)N(C)C)cc2c(=O)cc(N3CCOCC3)oc12` [AZD-8186], which “CTG-3D luminescence at 96 h” value is on record?
A: Its value is 5.61 and 5.06.

Q: With `COc1cccc2c1C(=O)c1c(O)c3c(c(O)c1C2=O)C[C@@](O)(C(=O)CO)C[C@@H]3O[C@H]1C[C@H](N)[C@@H](O)[C@H](C)O1` [epirubicin] as the molecule, how does the “CTG-3D luminescence at 96 h” value read?
A: The value was 5.46 and 4.99.

Q: For `CC(=O)c1c(C)c2cnc(Nc3ccc(N4CCNCC4)cn3)nc2n(C2CCCC2)c1=O` [palbociclib], which “CTG-3D luminescence at 96 h” value is on record?
A: The value was 5.2 ± 2.5.

Q: How did the “CTG-3D luminescence at 96 h” value turn out when `O=C(c1cc(Cc2n[nH]c(=O)c3ccccc23)ccc1F)N1CCN(C(=O)C2CC2)CC1` [olaparib] was run?
A: Its value is 5.57 and 5.09.

Same assay, conditions: 0.00025 µM

Q: `CCOc1ccn(-c2ccc(F)cc2)c(=O)c1C(=O)Nc1ccc(Oc2ccnc(N)c2Cl)c(F)c1` [ASLAN002] was tested. Which “CTG-3D luminescence at 96 h” value did it give?
A: Its value is 5.18 ± 2.6.

Q: `C[C@@H](Nc1cc(F)cc(F)c1)c1cc(C(=O)N(C)C)cc2c(=O)cc(N3CCOCC3)oc12` [AZD-8186] was tested. Which “CTG-3D luminescence at 96 h” value did it give?
A: Its value is 5.71 and 5.14.

Q: With `COc1cccc2c1C(=O)c1c(O)c3c(c(O)c1C2=O)C[C@@](O)(C(=O)CO)C[C@@H]3O[C@H]1C[C@H](N)[C@@H](O)[C@H](C)O1` [epirubicin] as the molecule, how does the “CTG-3D luminescence at 96 h” value read?
A: The value was 5.52 and 4.95.

Q: For `CC(=O)c1c(C)c2cnc(Nc3ccc(N4CCNCC4)cn3)nc2n(C2CCCC2)c1=O` [palbociclib], which “CTG-3D luminescence at 96 h” value is on record?
A: The value was 5.24 ± 2.5.

Q: `O=C(c1cc(Cc2n[nH]c(=O)c3ccccc23)ccc1F)N1CCN(C(=O)C2CC2)CC1` [olaparib] was tested. Which “CTG-3D luminescence at 96 h” value did it give?
A: Its value is 5.62 and 5.21.

Same assay, conditions: 0.005 µM

Q: `CCOc1ccn(-c2ccc(F)cc2)c(=O)c1C(=O)Nc1ccc(Oc2ccnc(N)c2Cl)c(F)c1` [ASLAN002] was tested. Which “CTG-3D luminescence at 96 h” value did it give?
A: Its value is 5.26 ± 2.7.

Q: With `C[C@@H](Nc1cc(F)cc(F)c1)c1cc(C(=O)N(C)C)cc2c(=O)cc(N3CCOCC3)oc12` [AZD-8186] as the molecule, how does the “CTG-3D luminescence at 96 h” value read?
A: Its value is 5.56 and 5.16.

Q: Which “CTG-3D luminescence at 96 h” value does the source give for `COc1cccc2c1C(=O)c1c(O)c3c(c(O)c1C2=O)C[C@@](O)(C(=O)CO)C[C@@H]3O[C@H]1C[C@H](N)[C@@H](O)[C@H](C)O1` [epirubicin] here?
A: Its value is 4.84 and 4.76.

Q: How did the “CTG-3D luminescence at 96 h” value turn out when `CC(=O)c1c(C)c2cnc(Nc3ccc(N4CCNCC4)cn3)nc2n(C2CCCC2)c1=O` [palbociclib] was run?
A: Its value is 5.27 ± 2.8.

Q: With `O=C(c1cc(Cc2n[nH]c(=O)c3ccccc23)ccc1F)N1CCN(C(=O)C2CC2)CC1` [olaparib] as the molecule, how does the “CTG-3D luminescence at 96 h” value read?
A: Its value is 5.57 and 5.41.

Same assay, conditions: 0.1 µM

Q: How did the “CTG-3D luminescence at 96 h” value turn out when `CCOc1ccn(-c2ccc(F)cc2)c(=O)c1C(=O)Nc1ccc(Oc2ccnc(N)c2Cl)c(F)c1` [ASLAN002] was run?
A: Its value is 5.15 ± 2.2.

Q: Which “CTG-3D luminescence at 96 h” value does the source give for `C[C@@H](Nc1cc(F)cc(F)c1)c1cc(C(=O)N(C)C)cc2c(=O)cc(N3CCOCC3)oc12` [AZD-8186] here?
A: Its value is 5.39 and 4.98.

Q: How did the “CTG-3D luminescence at 96 h” value turn out when `COc1cccc2c1C(=O)c1c(O)c3c(c(O)c1C2=O)C[C@@](O)(C(=O)CO)C[C@@H]3O[C@H]1C[C@H](N)[C@@H](O)[C@H](C)O1` [epirubicin] was run?
A: Its value is 3.26 and 3.33.

Q: For `CC(=O)c1c(C)c2cnc(Nc3ccc(N4CCNCC4)cn3)nc2n(C2CCCC2)c1=O` [palbociclib], which “CTG-3D luminescence at 96 h” value is on record?
A: Its value is 5.18 ± 2.

Q: Which “CTG-3D luminescence at 96 h” value does the source give for `O=C(c1cc(Cc2n[nH]c(=O)c3ccccc23)ccc1F)N1CCN(C(=O)C2CC2)CC1` [olaparib] here?
A: Its value is 5.38 and 5.09.

Same assay, conditions: 1 µM

Q: For `CCOc1ccn(-c2ccc(F)cc2)c(=O)c1C(=O)Nc1ccc(Oc2ccnc(N)c2Cl)c(F)c1` [ASLAN002], which “CTG-3D luminescence at 96 h” value is on record?
A: Its value is 5.49 ± 2.8.

Q: Which “CTG-3D luminescence at 96 h” value does the source give for `C[C@@H](Nc1cc(F)cc(F)c1)c1cc(C(=O)N(C)C)cc2c(=O)cc(N3CCOCC3)oc12` [AZD-8186] here?
A: The value was 5.11 and 4.76.

Q: With `COc1cccc2c1C(=O)c1c(O)c3c(c(O)c1C2=O)C[C@@](O)(C(=O)CO)C[C@@H]3O[C@H]1C[C@H](N)[C@@H](O)[C@H](C)O1` [epirubicin] as the molecule, how does the “CTG-3D luminescence at 96 h” value read?
A: Its value is 0.232 and 0.543.

Q: Which “CTG-3D luminescence at 96 h” value does the source give for `CC(=O)c1c(C)c2cnc(Nc3ccc(N4CCNCC4)cn3)nc2n(C2CCCC2)c1=O` [palbociclib] here?
A: The value was 5.16 ± 2.3.

Q: With `O=C(c1cc(Cc2n[nH]c(=O)c3ccccc23)ccc1F)N1CCN(C(=O)C2CC2)CC1` [olaparib] as the molecule, how does the “CTG-3D luminescence at 96 h” value read?
A: The value was 5.15 and 5.11.

Same assay, conditions: 10 µM

Q: How did the “CTG-3D luminescence at 96 h” value turn out when `CCOc1ccn(-c2ccc(F)cc2)c(=O)c1C(=O)Nc1ccc(Oc2ccnc(N)c2Cl)c(F)c1` [ASLAN002] was run?
A: The value was 4.89 ± 2.

Q: Which “CTG-3D luminescence at 96 h” value does the source give for `C[C@@H](Nc1cc(F)cc(F)c1)c1cc(C(=O)N(C)C)cc2c(=O)cc(N3CCOCC3)oc12` [AZD-8186] here?
A: Its value is 4.68 and 4.38.

Q: How did the “CTG-3D luminescence at 96 h” value turn out when `COc1cccc2c1C(=O)c1c(O)c3c(c(O)c1C2=O)C[C@@](O)(C(=O)CO)C[C@@H]3O[C@H]1C[C@H](N)[C@@H](O)[C@H](C)O1` [epirubicin] was run?
A: Its value is 0.504 and 0.188.

Q: Which “CTG-3D luminescence at 96 h” value does the source give for `CC(=O)c1c(C)c2cnc(Nc3ccc(N4CCNCC4)cn3)nc2n(C2CCCC2)c1=O` [palbociclib] here?
A: Its value is 4.35 ± 1.2.

Q: `O=C(c1cc(Cc2n[nH]c(=O)c3ccccc23)ccc1F)N1CCN(C(=O)C2CC2)CC1` [olaparib] was tested. Which “CTG-3D luminescence at 96 h” value did it give?
A: Its value is 4.31 and 4.38.

Same assay, conditions: 100 µM

Q: How did the “CTG-3D luminescence at 96 h” value turn out when `CCOc1ccn(-c2ccc(F)cc2)c(=O)c1C(=O)Nc1ccc(Oc2ccnc(N)c2Cl)c(F)c1` [ASLAN002] was run?
A: The value was 3.8 ± 1.8.

Q: With `C[C@@H](Nc1cc(F)cc(F)c1)c1cc(C(=O)N(C)C)cc2c(=O)cc(N3CCOCC3)oc12` [AZD-8186] as the molecule, how does the “CTG-3D luminescence at 96 h” value read?
A: The value was 2.77 and 2.47.

Q: How did the “CTG-3D luminescence at 96 h” value turn out when `COc1cccc2c1C(=O)c1c(O)c3c(c(O)c1C2=O)C[C@@](O)(C(=O)CO)C[C@@H]3O[C@H]1C[C@H](N)[C@@H](O)[C@H](C)O1` [epirubicin] was run?
A: The value was -0.0125 and -0.0119.

Q: `CC(=O)c1c(C)c2cnc(Nc3ccc(N4CCNCC4)cn3)nc2n(C2CCCC2)c1=O` [palbociclib] was tested. Which “CTG-3D luminescence at 96 h” value did it give?
A: The value was 1.02 ± 0.14.

Q: `O=C(c1cc(Cc2n[nH]c(=O)c3ccccc23)ccc1F)N1CCN(C(=O)C2CC2)CC1` [olaparib] was tested. Which “CTG-3D luminescence at 96 h” value did it give?
A: Its value is 3.27 and 2.33.

Same assay, conditions: 625 fM

Q: Which “CTG-3D luminescence at 96 h” value does the source give for `CCOc1ccn(-c2ccc(F)cc2)c(=O)c1C(=O)Nc1ccc(Oc2ccnc(N)c2Cl)c(F)c1` [ASLAN002] here?
A: Its value is 5.36 ± 2.8.

Q: How did the “CTG-3D luminescence at 96 h” value turn out when `C[C@@H](Nc1cc(F)cc(F)c1)c1cc(C(=O)N(C)C)cc2c(=O)cc(N3CCOCC3)oc12` [AZD-8186] was run?
A: The value was 5.47 and 5.15.

Q: Which “CTG-3D luminescence at 96 h” value does the source give for `COc1cccc2c1C(=O)c1c(O)c3c(c(O)c1C2=O)C[C@@](O)(C(=O)CO)C[C@@H]3O[C@H]1C[C@H](N)[C@@H](O)[C@H](C)O1` [epirubicin] here?
A: Its value is 5.48 and 5.03.

Q: With `CC(=O)c1c(C)c2cnc(Nc3ccc(N4CCNCC4)cn3)nc2n(C2CCCC2)c1=O` [palbociclib] as the molecule, how does the “CTG-3D luminescence at 96 h” value read?
A: Its value is 5.32 ± 2.8.

Q: `O=C(c1cc(Cc2n[nH]c(=O)c3ccccc23)ccc1F)N1CCN(C(=O)C2CC2)CC1` [olaparib] was tested. Which “CTG-3D luminescence at 96 h” value did it give?
A: The value was 5.41 and 5.09.
